Experimental data reported in the supplement of paper PMC11061612.

What was measured:
Assay in all cases: Bliss excess, mean over the matrix (fraction); higher = more synergy
[1] = system: 8505C (Thyroid Gland Carcinoma)
Method in brief: (§1)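 Cell lines in DMEM/F12 or RPMI with 10% FBS were plated in 1536-well plates, held 24 hours at 37°C, 5% CO2, then given two-drug dose matrices for 72 hours (DMSO typically 0.2%). Viability was read by CellTiter-Glo 2.0 luminescence and scaled as inhibition from 0 (vehicle wells) to 1 (blank wells). Combination Emax is the second-highest inhibition in the matrix; Bliss excess is observed combination effect minus expected EA + EB − EA·EB, EA and EB being single-agent effects.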

[2] = system: COR-L279 (Small Cell Lung Carcinoma)
Method in brief: as §1

[3] = system: CW-2 (Colorectal Carcinoma)
Method in brief: as §1

[4] = system: DAN-G (Pancreatic Carcinoma)
Method in brief: as §1

[5] = system: HCC1419 (Breast Carcinoma)
Method in brief: as §1

[6] = system: KMS-12-BM (Plasma Cell Myeloma)
Method in brief: as §1

[7] = system: KYSE-270 (Esophageal Squamous Cell Carcinoma)
Method in brief: as §1

M059J (Glioblastoma) = system: M059J (Glioblastoma)
Method in brief: as §1

[8] = system: MOG-G-CCM (Low Grade Glioma)
Method in brief: as §1

[9] = system: NCI-H520 (Squamous Cell Lung Carcinoma)
Method in brief: as §1

[10] = system: NCI-H661 (Non-Small Cell Lung Carcinoma)
Method in brief: as §1

[11] = system: NCI-H929 (Plasma Cell Myeloma)
Method in brief: as §1

RD (Rhabdomyosarcoma) = system: RD (Rhabdomyosarcoma)
Method in brief: as §1

[12] = system: RPMI-8226 (Plasma Cell Myeloma)
Method in brief: as §1

SJSA-1 (Osteosarcoma) = system: SJSA-1 (Osteosarcoma)
Method in brief: as §1

[13] = system: SK-GT-2 (Gastric Carcinoma)
Method in brief: as §1

[14] = system: SK-GT-4 (Esophageal Adenocarcinoma)
Method in brief: as §1

[15] = system: SNU-398 (Hepatocellular Carcinoma)
Method in brief: as §1

[16] = system: ST486 (Burkitt's Lymphoma)
Method in brief: as §1

[17] = system: VMRC-RCZ (Kidney Carcinoma)
Method in brief: as §1

Row | Compound | Bliss excess [1] | Bliss excess [2] | Bliss excess [3] | Bliss excess [4] | Bliss excess [5] | Bliss excess [6] | Bliss excess [7] | Bliss excess (M059J (Glioblastoma)) | Bliss excess [8] | Bliss excess [9] | Bliss excess [10] | Bliss excess [11] | Bliss excess (RD (Rhabdomyosarcoma)) | Bliss excess [12] | Bliss excess (SJSA-1 (Osteosarcoma)) | Bliss excess [13] | Bliss excess [14] | Bliss excess [15] | Bliss excess [16] | Bliss excess [17]
1 | C[C@@H](c1ccc2nccn2c1)n1nnc2ncc(-c3cnn(C)c3)nc21 [Savolitinib] + CC1(C)CCC(CN2CCN(c3ccc(C(=O)NS(=O)(=O)c4ccc(NCC5CCOCC5)c([N+](=O)[O-])c4)c(Oc4cnc5[nH]ccc5c4)c3)CC2)=C(c2ccc(Cl)cc2)C1 [Venetoclax] (first compound max 1 µM, 7x7, partner max 1 µM) | -0.0664 | -0.0059 | -0.0459 | -0.09 | -0.0225 | 0.0253 | -0.0463 | -0.0321 | -0.0448 | -0.0333 | -0.0651 | 0.0439 | -0.0598 | -0.0456 | -0.0775 | -0.0144 | -0.0732 | -0.057 | -0.0481 | -0.0374
2 | C[C@@H](c1ccc2nccn2c1)n1nnc2ncc(-c3cnn(C)c3)nc21 [Savolitinib] + Cc1c2c(nn1C)CSCc1cc(n(C)n1)CSc1cc(c3ccccc3c1)OCCCc1c(C(=O)O)n(C)c3c-2c(Cl)ccc13 [AZD5991] (first compound max 1 µM, 7x7, partner max 1 µM) | -0.0324 | 0.0219 | -0.0263 | -0.0434 | 0.0448 | -0.0168 | 0.0527 | -0.0289 | -0.0683 | -0.0539 | -0.0666 | 0.0063 | -0.0177 | -0.0125 | -0.0714 | -0.0274 | -0.0519 | -0.0697 | -0.0159 | -0.0297
3 | Cn1cnc2c(F)c(Nc3ccc(Br)cc3Cl)c(C(=O)NOCCO)cc21 [Selumetinib] + C=CCn1c(=O)c2cnc(Nc3ccc(N4CCN(C)CC4)cc3)nc2n1-c1cccc(C(C)(C)O)n1 [AZD1775] (first compound max 10 µM, partner max 1 µM) | 0.0279 | 0.0006 | -0.005 | 0.014 | -0.0697 | -0.0355 | -0.0654 | -0.0499 | -0.0923 | -0.0795 | -0.0891 | 0.0127 | -0.0128 | 0.0433 | -0.0275 | -0.0872 | -0.0203 | 0.0182 | 0.0165 | -0.066
4 | Cn1cnc2c(F)c(Nc3ccc(Br)cc3Cl)c(C(=O)NOCCO)cc21 [Selumetinib] + CC(C)n1c(=O)n(C)c2cnc3cc(F)c(-c4ccc(OCCCN5CCCCC5)nc4)cc3c21 [AZD1390] (first compound max 10 µM, 7x7, partner max 0.3 µM) | -0.0717 | -0.0094 | -0.0383 | -0.0484 | -0.0426 | 0.0032 | -0.0376 | -0.0375 | -0.0476 | -0.0486 | -0.0559 | 0.0105 | -0.0405 | 0.0158 | -0.042 | -0.0423 | 0.0162 | -0.053 | -0.0391 | -0.0387
5 | Cn1cnc2c(F)c(Nc3ccc(Br)cc3Cl)c(C(=O)NOCCO)cc21 [Selumetinib] + CCN(CCO)CCCOc1ccc2c(Nc3cc(CC(=O)Nc4cccc(F)c4)[nH]n3)ncnc2c1 [AZD2811] (first compound max 10 µM, 7x7, partner max 1 µM) | -0.0546 | -0.0243 | -0.0142 | 0.0445 | -0.0451 | 0.0832 | 0.0103 | -0.033 | -0.0745 | -0.0221 | -0.0645 | 0.01 | -0.0016 | 0.0053 | -0.0705 | -0.0443 | -0.0533 | 0.0026 | 0.0872 | -0.0501
6 | Cn1cnc2c(F)c(Nc3ccc(Br)cc3Cl)c(C(=O)NOCCO)cc21 [Selumetinib] + C[C@@H]1COCCN1C2=NC(=NC(=C2)C3(CC3)[S@](=N)(=O)C)C4=C5C=CNC5=NC=C4 [AZD6738] (first compound max 10 µM, 7x7, partner max 10 µM) | 0.111 | -0.0377 | 0.009 | 0.0105 | -0.0522 | 0.0112 | -0.0302 | -0.056 | -0.0704 | -0.0804 | -0.0627 | -0.121 | 0.0877 | 0.0032 | 0.0241 | -0.0229 | 0.017 | 0.0082 | -0.0592 | -0.0594
7 | CC(=O)Nc1cccc(-n2c(=O)n(C3CC3)c(=O)c3c(Nc4ccc(I)cc4F)n(C)c(=O)c(C)c32)c1 [Trametinib] + Cc1nc(-c2cn3c(n2)-c2ccc(-c4cnn(C(C)(C)C(N)=O)c4)cc2OCC3)n(C(C)C)n1 [Taselisib] (first compound max 1 µM, 7x7, partner max 10 µM) | 0.142 | -0.0486 | 0.122 | 0.124 | 0.032 | 0.103 | 0.176 | 0.0493 | 0.0182 | 0.0256 | 0.115 | 0.0401 | 0.261 | 0.25 | 0.0501 | 0.134 | 0.103 | 0.0676 | -0.033 | 0.0186
8 | CC1(C)CCC(CN2CCN(c3ccc(C(=O)NS(=O)(=O)c4ccc(NCC5CCOCC5)c([N+](=O)[O-])c4)c(Oc4cnc5[nH]ccc5c4)c3)CC2)=C(c2ccc(Cl)cc2)C1 [Venetoclax] + C1CN(CCC1(C(=O)N[C@@H](CCO)C2=CC=C(C=C2)Cl)N)C3=NC=NC4=C3C=CN4 [Capivasertib] (first compound max 1 µM, 7x7, partner max 3 µM) | -0.027 | 0.0055 | -0.0259 | -0.0689 | -0.057 | 0.0559 | 0.0002 | 0.0099 | -0.0568 | -0.0275 | -0.0218 | -0.0099 | -0.0226 | -0.0102 | -0.0509 | -0.0211 | -0.0728 | -0.0081 | -0.0348 | -0.0236
9 | CC1(C)CCC(CN2CCN(c3ccc(C(=O)NS(=O)(=O)c4ccc(NCC5CCOCC5)c([N+](=O)[O-])c4)c(Oc4cnc5[nH]ccc5c4)c3)CC2)=C(c2ccc(Cl)cc2)C1 [Venetoclax] + C=CCn1c(=O)c2cnc(Nc3ccc(N4CCN(C)CC4)cc3)nc2n1-c1cccc(C(C)(C)O)n1 [AZD1775] (first compound max 1 µM, partner max 1 µM) | -0.0083 | -0.0349 | -0.0091 | -0.0114 | -0.0261 | 0.0356 | 0.0742 | -0.0663 | 0.0303 | -0.0031 | -0.0588 | 0.0499 | -0.0163 | 0.0368 | -0.0733 | 0.0014 | 0.0384 | 0.0035 | 0.108 | 0.0418
10 | CC1(C)CCC(CN2CCN(c3ccc(C(=O)NS(=O)(=O)c4ccc(NCC5CCOCC5)c([N+](=O)[O-])c4)c(Oc4cnc5[nH]ccc5c4)c3)CC2)=C(c2ccc(Cl)cc2)C1 [Venetoclax] + CCN(CCO)CCCOc1ccc2c(Nc3cc(CC(=O)Nc4cccc(F)c4)[nH]n3)ncnc2c1 [AZD2811] (first compound max 1 µM, 7x7, partner max 1 µM) | -0.0133 | 0.0501 | 0.0269 | -0.0106 | -0.0448 | 0.0773 | -0.0072 | -0.0687 | -0.0061 | 0.0319 | -0.0105 | 0.101 | -0.0311 | 0.0361 | -0.0214 | 0.0136 | -0.0295 | -0.0599 | -0.0299 | -0.0391
11 | CC1(C)CCC(CN2CCN(c3ccc(C(=O)NS(=O)(=O)c4ccc(NCC5CCOCC5)c([N+](=O)[O-])c4)c(Oc4cnc5[nH]ccc5c4)c3)CC2)=C(c2ccc(Cl)cc2)C1 [Venetoclax] + CN(C)CCCOc1ccc(-c2ccc3ncc4c(c3c2)n(C2CCOCC2)c(=O)n4C)cn1 [AZD0156] (first compound max 1 µM, 7x7, partner max 1 µM) | 0.0155 | 0.0043 | 0.0285 | -0.0268 | -0.0156 | 0.0078 | 0.0107 | -0.0173 | -0.0198 | -0.048 | 0.0037 | 0.0294 | -0.0332 | 0.0405 | -0.0358 | 0.005 | -0.0544 | -0.0081 | 0.0106 | -0.0492
12 | CC1(C)CCC(CN2CCN(c3ccc(C(=O)NS(=O)(=O)c4ccc(NCC5CCOCC5)c([N+](=O)[O-])c4)c(Oc4cnc5[nH]ccc5c4)c3)CC2)=C(c2ccc(Cl)cc2)C1 [Venetoclax] + COc1cc(Nc2ncc3c(n2)-c2ccc(Cl)cc2C(c2c(F)cccc2OC)=NC3)ccc1C(=O)O [Alisertib] (first compound max 1 µM, 7x7, partner max 10 µM) | 0.0151 | 0.103 | -0.0094 | -0.0024 | -0.0573 | 0.085 | -0.016 | 0.0401 | 0.0552 | -0.0425 | -0.0206 | 0.197 | 0.0506 | 0.0721 | -0.0583 | -0.0274 | -0.107 | -0.0219 | -0.133 | -0.0292
13 | CC1(C)CCC(CN2CCN(c3ccc(C(=O)NS(=O)(=O)c4ccc(NCC5CCOCC5)c([N+](=O)[O-])c4)c(Oc4cnc5[nH]ccc5c4)c3)CC2)=C(c2ccc(Cl)cc2)C1 [Venetoclax] + C[C@@H]1COCCN1C2=NC(=NC(=C2)C3(CC3)[S@](=N)(=O)C)C4=C5C=CNC5=NC=C4 [AZD6738] (first compound max 1 µM, 7x7, partner max 10 µM) | -0.0219 | 0.0287 | 0.0258 | -0.0536 | -0.0479 | -0.012 | -0.0188 | -0.0258 | -0.045 | -0.0733 | -0.0698 | -0.0567 | 0.002 | 0.0142 | -0.0447 | 0.0388 | -0.0364 | -0.0662 | -0.0369 | -0.0262
14 | CC1(C)CCC(CN2CCN(c3ccc(C(=O)NS(=O)(=O)c4ccc(NCC5CCOCC5)c([N+](=O)[O-])c4)c(Oc4cnc5[nH]ccc5c4)c3)CC2)=C(c2ccc(Cl)cc2)C1 [Venetoclax] + C[C@@H](Nc1cc(F)cc(F)c1)c1cc(C(=O)N(C)C)cc2c(=O)cc(N3CCOCC3)oc12 [AZD8186] (first compound max 1 µM, 7x7, partner max 3 µM) | -0.024 | 0.0138 | -0.007 | -0.0346 | -0.0316 | 0.0494 | -0.0186 | -0.0141 | 0.0384 | -0.0637 | -0.0241 | -0.007 | 0.0032 | 0.037 | -0.0247 | -0.0271 | -0.0263 | -0.0201 | -0.0686 | -0.0215
